Results from a melting point compilation (Tetko et al.; mined from patent text by program, amines drawn as free bases though some values may be those of a salt).

Structure (SMILES) | melting point [°C]
O=C1OC(=O)[C@@H](Cl)[C@@H]1Cl (relative stereo) | 90 to 92
O=C1NC(=O)c2c1c(-c1ccccc1Cl)cc1c2c(Br)c(CO)n1CCCO | 203 to 205
CC1(C)CCC(C)(C)c2cc3cc(-c4csc(C(=O)O)c4)ccc3cc21 | 207 to 208
Cc1nccn1CCCNC(=O)c1ccc(Cl)nc1 | 175 to 177
CCCCOC(=O)S(=O)(=O)Nc1sc(CC(C)C)cc1-c1ccc(Cn2c(-c3ccccc3)nc(OC)c2C=O)c(Cl)c1 | 58
O=C(c1cccnc1)N1CCC(c2cccc(Cl)c2)=N1 | 124 to 126
Oc1ccc2c(c1)C(C(Cl)(Cl)Cl)OC(C(Cl)(Cl)Cl)O2 (centres undefined) | 167 to 169
COc1ccc(NC(=NC#N)NC(NC(=O)c2ccc(Cl)cc2)C(C)(Cl)Cl)c(OC)n1 (centres undefined) | 162 to 163
O=C(NCC(F)(F)F)c1cccc(CN2CCN(c3ccc(NC(=O)c4ccccc4-c4ccc(C(F)(F)F)cc4)cc3)CC2)c1 | 205 to 207
COc1ccc(/C=C(\C)c2ccc3c(c2)C(C)(C)CCC3(C)C)cc1 | 108 to 110
COc1ccc(C=CC(=O)c2c(OC)cc(OC)cc2OC(=O)c2ccc(OC)cc2)cc1 | 111 to 112
COCCN1CCC(O)(c2cc(F)cc(F)c2)C1 (single isomer, unassigned; (-)) | 130 to 131
O=Cc1cccn2c(Br)cnc12 | 104 to 106
COc1nc(OC)c(C(C)C)c(C(C#N)c2cc(C)cc(Br)c2)n1 (centres undefined) | 123 to 124
COc1ccc2c(-c3c(-c4ccccn4)nn4c3CCCCC4)ccnc2c1 | 127 to 129
Cc1nc(-n2cc(CCCc3ccccc3)nn2)sc1C(=O)NCc1cccnc1 | 108 to 110
O=Cc1cn(-c2ccc(C(F)(F)F)cn2)nc1C1CCCCC1 | 103 to 104
O=S1(=O)N=CN(C2CCCCCCC2)c2ccc(Cl)cc21 | 235 to 237
COc1cccc(Nc2ccnc(Nc3ccc(OC)c(OC)c3)n2)c1 | 135 to 138
CCC(=O)N(c1ccncc1)c1c[nH]c2ccccc12 | 166 to 168

Structure (SMILES) | melting point [°C]
COc1ccc2ncccc2c1C1OC(=O)NC1=O (centres undefined) | 144 to 146
Nc1ccc(Sc2ccc3c(c2)OCC(=O)N3)cc1 | 232 to 234
CCCCN(CCCC)Cc1cc(C(C)(C)C)cc(C(C)(C)C)c1O | 33 to 35
Cc1cc(C(=O)N(C)CCO)ncc1C(c1cc(F)ccc1F)S(=O)(=O)c1ccc(F)cc1 (centres undefined) | 123 to 125
Cc1c[nH]c(CCC(=O)O)c1 | 109 to 112
O=C(NO)c1ccc(C(=O)NOCCC23CC4CC(CC(C4)C2)C3)cc1 | 198 to 200
COc1cc2c(cc1OC)CN(CCc1ccc(NC(=O)c3cccc4c(=O)c5cccc(OC)c5sc34)cc1)CC2 | 218 to 219
CCc1cnc2n1N=C(c1ccc(N)cc1)c1cc3c(cc1C2)OCO3 | 258 to 260
CCCC(=O)Nc1cccc(-c2cccc(OC)c2)c1 | 90 to 91
CCCN(C(C)C)C(C)CC1=C(c2ccc(OC)cc2)CCCNC1=O (centres undefined) | 90 to 92
COc1ccc(C(=O)CI)cc1 | 63 to 65
O=C(NCCO)c1cccc(-c2cccc3nn(Cc4cccc(F)c4)cc23)c1 | 187 to 188
COc1cccc(Sc2cccc([N+](=O)[O-])c2C#N)c1 | 144 to 147
O=C1C=C(NC(=O)C(=O)c2cn(Cc3c(F)cccc3Cl)c3ccccc23)CO1 | > 270
Cc1nc(SC(=N)N)[nH]c1C | 283 to 285
COc1cc(C)cc(OC)c1NC1C2CC3CC(C2)CC1C3 (centres undefined) | 100
COc1ccc(S(=O)(=O)C2(CCCCC#Cc3ccc(Cl)cc3)SC(=O)NC2=O)cc1 (centres undefined) | 145 to 148
O=[N+]([O-])c1cccc(Cc2nnn[nH]2)c1 | 140
Cc1nnc(-c2ccc3occ(-c4ccc5c(c4)C(C)(C)CS5(=O)=O)c3c2)o1 | 242 to 243
